Measurements reported in patent US4244952A, “Imidazo[2',1':2,3]-thiazolo[5,4-c]pyridines and composition thereof for treating immune diseases” (Yoshitomi Pharmaceutical Industries, Ltd., priority 1978, dated 1981).

Assays:
[1] = tested on: rosette forming cells (RFC) in the spleen and thymus; experiment: Activity for potentiating immune response in dd-mice (RFC number after SRBC sensitization in CY-treated mice); format: in vivo, male dd-strain mice
Method: (I) Activity for potentiating immune response in dd-mice
As test animals, male dd-strain mice (8 week old) were used by dividing them into groups of 6 members. Each mouse was orally administered once a day with cyclophosphamide (CY) at a dose of 20 mg/kg 1 and 0 day before the sensitization. The sensitization (day 0) was made by the intravenous injection of the antigen; 1×10^8 sheep red blood cells (SRBC). Each mouse was orally administered with test compounds (day 0-4). Five days after the sensitization, the number of rosette forming cells (RFC) in the spleen and thymus was measured in a usual manner.

[2] = tested on: rosette forming cells (RFC) in the spleen and thymus; experiment: Activity for suppressing immune response in BALB/c mice (RFC number after SRBC sensitization); format: in vivo, female BALB/c-strain mice; details: 30 mg/kg p.o.; for RFC/organ Spleen: day 0 and 1; for RFC/organ Thymus: day 0 and 1, ** P < 0.01 vs. control
Method: (II) Activity for suppressing immune response in BALB/c mice
As test animals, female BALB/c-strain mice (6 week old) were used by dividing them into groups of 6 members.
The sensitization (day 0) was made by the intraperitoneal injection the antigen; 5×10^8 sheep red blood cells (SRBC). Each mouse was orally administered with test compounds at day 0 and 1. Four days after the sensitization, the number of rosette forming cells (RFC) in the spleen and thymus was measured in a usual manner.

[3] = Acute toxicity; details: mouse, in vivo, male dd-strain mice
Method: Acute toxicity of the test compound was determined using male dd-strain mice (8 week old) as test animals. The test compound was administered orally or intraperitoneally.

[4] = CY alone, 20 mg/kg p.o. once a day, 1 and 0 day before sensitization, dd-mice
[5] = CY (20 mg/kg) + test compound 1 mg/kg p.o., day 0-4, * P < 0.05 vs. CY treatment
[6] = CY (20 mg/kg) + test compound 1 mg/kg p.o., day 0-4, ** P < 0.01 vs. CY treatment
[7] = CY (20 mg/kg) + test compound 10 mg/kg p.o., day 0-4
[8] = CY (20 mg/kg) + test compound 10 mg/kg p.o., day 0-4, * P < 0.05 vs. CY treatment

| SMILES | RFC/organ Spleen [1, 4] | RFC/organ Thymus [1, 4] | number of RFC per spleen and thymus ([1]; group treated with CY alone) | RFC/organ Thymus [1, 5] | RFC/organ Spleen [1, 6] | RFC/organ Spleen [1, 7] | RFC/organ Thymus [1, 8] | RFC/organ Spleen [2] | RFC/organ Thymus [2] | LD50 ([3]; ip) [mg/kg] | LD50 ([3]; po) [mg/kg] |
| --- | --- | --- | --- | --- | --- | --- | --- | --- | --- | --- | --- |
| O=P1(N(CCCl)CCCl)NCCCO1 (stereo not shown) [CY, cyclophosphamide, reference compound] | 101 × 10^4 | 0.44 × 10^4 | reduced significantly | – | – | – | – | – | – | – | – |
| CCOC(=O)N1CCc2c(sc3nc(-c4ccc([N+](=O)[O-])cc4)cn23)C1 [Compound A, 7-ethoxycarbonyl-2-(4-nitrophenyl)-5,6,7,8-tetrahydroimidazo[2',1':2,3]thiazolo[5,4-c]pyridine] | – | – | – | 3.33 × 10^4 | 169 × 10^4 | 220 × 10^4 | 3.11 × 10^4 | 174 × 10^4 | 0.00 × 10^4 | 600 | 1000 |
| O=[N+]([O-])c1ccc(CN2CCc3c(sc4nccn34)C2)cc1 [Compound B, 7-(4-nitrobenzyl)-5,6,7,8-tetrahydroimidazo[2',1':2,3]thiazolo-[5,4-c]pyridine] | – | – | – | 2.00 × 10^4 | 291 × 10^4 | 135 × 10^4 | 1.56 × 10^4 | 104 × 10^4 | 0.14 × 10^4 | 600 to 1000 | 600 |
